# Like-named read-outs stand apart in the source and are kept apart here. Marks after values point to notes of the source that are not given here.
# Experiments:
# [1] = tested on: SULT isoforms; test: cDNA-expressed SULT isoform screen, comparison of stereoisomers across isoforms; assay type: in vitro ADME, human; details: in each of the SULT isoforms
# [2] = tested on: human-derived 1321N1 astrocytoma cells; details: read-out: IC50, inhibition of mitogenesis; cited from earlier work
# [3] = tested on: 1321N1 tumors; details: tumors implanted in the flank of SKID mice; cited from earlier work
# [4] = tested on: SULT1A3; test: cDNA-expressed SULT isoform screen, SULT1A3; details: relative to SULT1A1*1, SULT1A1*2, SULT1E1
# [5] = tested on: human intestinal S9 fractions (mixture of SULT enzymes); test: Kinetics of sulfation of MF stereoisomers by human intestinal S9 fractions; details: read-out: Km (Michaelis constant) of sulfation; human intestinal S9 1 mg/ml, 200 µM PAPS, pH 7.4, 60 min; mean ± SE
# [6] = humans; cited from earlier work
# [7] = tested on: human intestinal S9 fractions (mixture of SULT enzymes); details: pH 7.4
# [8] = tested on: human intestinal S9 fractions (mixture of SULT enzymes); details: for Reduction of (R,R)-MF conjugation at equimolar concentrations: equimolar with 50 µM [3H]-(R,R)-MF
# [9] = tested on: SULT1A1*1
# [10] = tested on: SULT1A1*2
# [11] = tested on: SULT1A3
# [12] = tested on: β2-AR; details: relative to (R,R)-MF; ref unpublished data; cited from earlier work
# [13] = tested on: SULT1E1
compound,measurement,setting,value
"COc1ccc(C[C@@H](C)NC[C@H](O)c2cc(O)cc(O)c2)cc1 [(R,R)-MF, (R,R)-4-methoxyfenoterol]","Sulfation rate compared with (S,S)-MF, (R,S)-MF and (S,R)-MF",[1],significantly (P < 0.0001) lower
same,IC50,[2],0.00017 µM
same,Growth of 1321N1 tumors,[3],retards the growth
same,"SULT1A3-mediated conjugation, greater than the sulfation by the other isoforms",[4],1.5- to 2 fold
same,Km,[5],62 ± 1.27 µM
"CC(Cc1ccc(O)cc1)NCC(O)c1cc(O)cc(O)c1 [(R,R;S,S)-Fen, fenoterol]",Oral bioavailability,[6],~ 2%
"COc1ccc(CC(C)NCC(O)c2cc(O)cc(O)c2)cc1 [(R,S)-MF, 4-methoxyfenoterol]",Km,[7],68.5 ± 3.2 µM
same,IC50,[8],> 400 µM
same,"Reduction of (R,R)-MF conjugation at equimolar concentrations",[8]; human intestinal S9,little effect
same,"SULT1A1*1-catalyzed sulfation, greater than SULT1A3 and SULT1E1",[9],1.5 fold
same,"SULT1A1*2-catalyzed sulfation, greater than SULT1A3 and SULT1E1",[10],1.5 fold
"COc1ccc(CC(C)NCC(O)c2cc(O)cc(O)c2)cc1 [(S,R)-MF, 4-methoxyfenoterol]",Km,[7],52 µM
same,"Reduction in the production of (R,R)-MF sulfate","[8]; 2:1 ratio of (S,R)-MF/(R,R)-MF, human intestinal S9",61%
same,"Reduction of (R,R)-MF conjugation at equimolar concentrations",[8]; human intestinal S9,~ 40%
same,"SULT1A3-mediated conjugation, greater than the sulfation by the other isoforms",[11],1.5- to 2 fold
same,"β2-AR agonist activity as share of that of (R,R)-MF",[12],less than 5%
"COc1ccc(CC(C)NCC(O)c2cc(O)cc(O)c2)cc1 [(S,S)-MF, 4-methoxyfenoterol]",Km,[7],89 µM
same,Km (Michaelis constant) of sulfation,[7],89.21 ^a ± 2.59 µM
same,IC50,[8],> 200 µM
same,"Reduction of (R,R)-MF conjugation at equimolar concentrations",[8]; human intestinal S9,little effect
same,"Activity of SULT1E1, lower than SULT1A1*1, SULT1A1*2 and SULT1A3",[13],1.3 fold
